{
  "source": "BindingDB's records for doi:10.1073/pnas.0705637104",
  "about": "(Nih, 2007)",
  "biological_target": "T1, Lysosomal acid glucosylceramidase (Homo sapiens, UniProt P04062)",
  "T1 sequence (P04062 whole entry)": "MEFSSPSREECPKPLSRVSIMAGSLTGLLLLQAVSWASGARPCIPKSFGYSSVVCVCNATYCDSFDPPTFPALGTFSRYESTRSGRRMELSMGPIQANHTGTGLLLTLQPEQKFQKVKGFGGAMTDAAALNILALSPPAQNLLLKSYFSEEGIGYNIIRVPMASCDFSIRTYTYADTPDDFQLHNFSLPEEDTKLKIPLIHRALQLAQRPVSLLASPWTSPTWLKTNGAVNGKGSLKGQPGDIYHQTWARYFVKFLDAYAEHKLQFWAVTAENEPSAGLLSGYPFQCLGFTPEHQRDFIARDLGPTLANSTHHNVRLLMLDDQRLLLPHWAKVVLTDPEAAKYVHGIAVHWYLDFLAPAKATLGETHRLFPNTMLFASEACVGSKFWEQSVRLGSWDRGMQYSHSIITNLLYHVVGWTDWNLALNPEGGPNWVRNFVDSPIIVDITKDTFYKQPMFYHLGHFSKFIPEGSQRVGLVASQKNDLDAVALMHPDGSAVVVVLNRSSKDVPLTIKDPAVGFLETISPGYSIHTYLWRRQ",
  "assay": "GC Enzyme Assay",
  "settings": "pH 5.9; 21 °C",
  "data": [
    {"smiles": "CN(c1ccc(C(=O)Nc2nccs2)cc1)S(=O)(=O)c1ccccc1", "values": [
      {"measurement": "IC50", "result": 34.4, "unit": "µM"},
      {"measurement": "Ki", "result": 23.4, "unit": "µM"}
    ]},
    {"smiles": "O=C(Nc1nccs1)c1ccc(NS(=O)(=O)c2ccc(Cl)cc2)cc1", "note": "[4-[(4-chlorobenzene)sulfonamido]-N-(1,3-thiazol-2-yl)benzamide]", "values": [
      {"measurement": "IC50", "result": 1.29, "unit": "µM"},
      {"measurement": "Ki", "result": 0.556, "unit": "µM"}
    ]}
  ]
}
